What was measured:
[1] = system: Tyrosine-protein kinase ABL1 (Homo sapiens), P00519 [H396P]; settings: Compound concentration 1000.0 nM
[2] = system: Tyrosine-protein kinase ABL1 (Homo sapiens), P00519 [M351T]; settings: Compound concentration 1000.0 nM
[3] = target: Cyclin-dependent kinase-like 2 (Homo sapiens) (UniProt Q92772); settings: Compound concentration 1000.0 nM
[4] = target: Casein kinase I isoform gamma-3 (Homo sapiens) (UniProt Q9Y6M4); settings: Compound concentration 1000.0 nM
[5] = system: Epidermal growth factor receptor (Homo sapiens), P00533 [UNDEFINED MUTATION]; settings: Compound concentration 1000.0 nM
[6] = target: Serine/threonine-protein kinase/endoribonuclease IRE1 (Homo sapiens) (UniProt O75460); settings: Compound concentration 1000.0 nM
[7] = target: Mast/stem cell growth factor receptor Kit (Homo sapiens) (UniProt P10721); settings: Compound concentration 1000.0 nM
[8] = target: Mitogen-activated protein kinase kinase kinase 4 (Homo sapiens) (UniProt Q9Y6R4); settings: Compound concentration 1000.0 nM
[9] = target: T1, MAP/microtubule affinity-regulating kinase 4 (Homo sapiens) (UniProt Q96L34); settings: Compound concentration 1000.0 nM
T1 sequence (whole entry): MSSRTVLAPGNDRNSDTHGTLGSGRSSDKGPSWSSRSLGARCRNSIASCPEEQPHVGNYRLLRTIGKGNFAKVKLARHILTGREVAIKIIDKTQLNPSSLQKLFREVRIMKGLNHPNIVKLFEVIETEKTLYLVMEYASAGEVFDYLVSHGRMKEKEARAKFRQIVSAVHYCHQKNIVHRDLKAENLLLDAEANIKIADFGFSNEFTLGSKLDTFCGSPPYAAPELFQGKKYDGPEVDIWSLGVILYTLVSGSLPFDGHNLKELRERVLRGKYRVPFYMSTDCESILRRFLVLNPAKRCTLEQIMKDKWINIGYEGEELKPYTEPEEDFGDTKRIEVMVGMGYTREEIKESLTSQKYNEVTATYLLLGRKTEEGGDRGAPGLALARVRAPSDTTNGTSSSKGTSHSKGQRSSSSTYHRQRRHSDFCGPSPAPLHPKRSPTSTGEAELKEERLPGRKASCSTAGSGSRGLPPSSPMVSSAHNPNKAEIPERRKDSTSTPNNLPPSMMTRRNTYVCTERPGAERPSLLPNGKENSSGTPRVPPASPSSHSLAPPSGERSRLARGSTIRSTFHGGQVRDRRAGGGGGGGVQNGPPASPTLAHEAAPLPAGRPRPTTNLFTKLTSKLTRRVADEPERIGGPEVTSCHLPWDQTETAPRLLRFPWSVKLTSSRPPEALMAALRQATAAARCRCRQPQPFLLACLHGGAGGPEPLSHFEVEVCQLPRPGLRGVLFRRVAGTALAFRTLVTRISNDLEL

[10] = target: Dual specificity mitogen-activated protein kinase kinase 1 (Homo sapiens) (UniProt Q02750); settings: Compound concentration 1000.0 nM
Sequence of Dual specificity mitogen-activated protein kinase kinase 1 (Homo sapiens) (Q02750 whole entry): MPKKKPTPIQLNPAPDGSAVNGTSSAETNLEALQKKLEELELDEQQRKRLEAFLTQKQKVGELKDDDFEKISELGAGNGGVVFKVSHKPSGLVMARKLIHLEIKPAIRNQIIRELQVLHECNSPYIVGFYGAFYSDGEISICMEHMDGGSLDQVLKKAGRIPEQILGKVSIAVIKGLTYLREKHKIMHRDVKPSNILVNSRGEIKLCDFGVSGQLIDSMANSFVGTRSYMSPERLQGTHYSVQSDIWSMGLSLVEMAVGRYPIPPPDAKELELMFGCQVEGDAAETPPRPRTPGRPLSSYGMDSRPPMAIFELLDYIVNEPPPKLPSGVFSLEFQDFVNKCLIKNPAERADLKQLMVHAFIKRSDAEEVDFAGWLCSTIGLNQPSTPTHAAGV

[11] = target: Dual specificity mitogen-activated protein kinase kinase 3 (Homo sapiens) (UniProt P46734); settings: Compound concentration 1000.0 nM
Sequence of Dual specificity mitogen-activated protein kinase kinase 3 (Homo sapiens) (P46734 whole entry): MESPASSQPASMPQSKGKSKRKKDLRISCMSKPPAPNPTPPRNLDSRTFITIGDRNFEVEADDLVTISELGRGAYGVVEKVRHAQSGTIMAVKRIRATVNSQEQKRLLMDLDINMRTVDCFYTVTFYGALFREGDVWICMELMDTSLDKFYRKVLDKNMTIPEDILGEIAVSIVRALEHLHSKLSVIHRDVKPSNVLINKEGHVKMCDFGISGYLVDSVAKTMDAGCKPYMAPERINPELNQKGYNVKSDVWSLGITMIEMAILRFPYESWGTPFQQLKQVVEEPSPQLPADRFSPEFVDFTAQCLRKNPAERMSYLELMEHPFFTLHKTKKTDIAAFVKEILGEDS

[12] = target: Hepatocyte growth factor receptor (Homo sapiens) (UniProt P08581); settings: Compound concentration 1000.0 nM
[13] = system: Hepatocyte growth factor receptor (Homo sapiens), P08581 [Y1235D]; settings: Compound concentration 1000.0 nM
[14] = target: Serine/threonine-protein kinase pim-2 (Homo sapiens) (UniProt Q9P1W9); settings: Compound concentration 1000.0 nM
Sequence of Serine/threonine-protein kinase pim-2 (Homo sapiens) (Q9P1W9 whole entry, looked up): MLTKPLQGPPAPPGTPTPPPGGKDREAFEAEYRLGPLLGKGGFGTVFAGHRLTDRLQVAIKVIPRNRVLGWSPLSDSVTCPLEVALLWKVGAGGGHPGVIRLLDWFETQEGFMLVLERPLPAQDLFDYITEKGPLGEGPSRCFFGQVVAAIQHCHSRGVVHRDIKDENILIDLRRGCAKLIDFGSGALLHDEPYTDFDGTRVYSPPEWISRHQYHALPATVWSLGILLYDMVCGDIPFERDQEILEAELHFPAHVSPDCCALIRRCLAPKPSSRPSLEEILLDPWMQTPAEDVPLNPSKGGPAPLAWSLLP

[15] = system: Proto-oncogene tyrosine-protein kinase receptor Ret (Homo sapiens), P07949 [M918T]; settings: Compound concentration 1000.0 nM
Sequence of Proto-oncogene tyrosine-protein kinase receptor Ret (Homo sapiens), P07949 [M918T] (P07949 whole entry M918T): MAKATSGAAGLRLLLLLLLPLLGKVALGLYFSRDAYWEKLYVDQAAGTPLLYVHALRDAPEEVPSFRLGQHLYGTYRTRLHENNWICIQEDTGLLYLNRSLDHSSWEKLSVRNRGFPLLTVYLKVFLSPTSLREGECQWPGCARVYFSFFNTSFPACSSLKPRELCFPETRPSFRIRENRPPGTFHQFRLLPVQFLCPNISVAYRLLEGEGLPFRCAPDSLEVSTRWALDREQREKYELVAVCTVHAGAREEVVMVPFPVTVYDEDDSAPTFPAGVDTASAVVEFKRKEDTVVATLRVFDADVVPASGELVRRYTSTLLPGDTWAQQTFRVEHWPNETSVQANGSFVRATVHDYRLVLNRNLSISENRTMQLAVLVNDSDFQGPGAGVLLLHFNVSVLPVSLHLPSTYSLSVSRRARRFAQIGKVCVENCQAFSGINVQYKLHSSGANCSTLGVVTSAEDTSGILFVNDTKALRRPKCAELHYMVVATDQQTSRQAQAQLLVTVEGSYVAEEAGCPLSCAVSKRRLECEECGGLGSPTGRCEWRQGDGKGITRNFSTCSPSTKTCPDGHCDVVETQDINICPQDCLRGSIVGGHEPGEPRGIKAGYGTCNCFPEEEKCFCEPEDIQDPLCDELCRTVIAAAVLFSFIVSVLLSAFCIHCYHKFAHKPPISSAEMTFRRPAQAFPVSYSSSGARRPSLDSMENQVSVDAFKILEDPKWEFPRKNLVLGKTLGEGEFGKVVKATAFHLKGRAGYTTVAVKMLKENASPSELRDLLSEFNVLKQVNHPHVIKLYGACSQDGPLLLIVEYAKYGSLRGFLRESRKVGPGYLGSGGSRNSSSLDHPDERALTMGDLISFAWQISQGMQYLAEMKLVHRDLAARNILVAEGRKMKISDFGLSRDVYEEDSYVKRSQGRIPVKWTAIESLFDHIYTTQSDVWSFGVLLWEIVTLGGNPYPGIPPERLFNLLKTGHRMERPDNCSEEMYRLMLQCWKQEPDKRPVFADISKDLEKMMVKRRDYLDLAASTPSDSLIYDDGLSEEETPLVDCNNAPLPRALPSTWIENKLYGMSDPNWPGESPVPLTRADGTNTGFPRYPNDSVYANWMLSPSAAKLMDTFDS

[16] = target: Rho-associated protein kinase 1 (Homo sapiens) (UniProt Q13464); settings: Compound concentration 1000.0 nM
[17] = target: Rho-associated protein kinase 2 (Homo sapiens) (UniProt O75116); settings: Compound concentration 1000.0 nM
Sequence of Rho-associated protein kinase 2 (Homo sapiens) (O75116 whole entry, looked up): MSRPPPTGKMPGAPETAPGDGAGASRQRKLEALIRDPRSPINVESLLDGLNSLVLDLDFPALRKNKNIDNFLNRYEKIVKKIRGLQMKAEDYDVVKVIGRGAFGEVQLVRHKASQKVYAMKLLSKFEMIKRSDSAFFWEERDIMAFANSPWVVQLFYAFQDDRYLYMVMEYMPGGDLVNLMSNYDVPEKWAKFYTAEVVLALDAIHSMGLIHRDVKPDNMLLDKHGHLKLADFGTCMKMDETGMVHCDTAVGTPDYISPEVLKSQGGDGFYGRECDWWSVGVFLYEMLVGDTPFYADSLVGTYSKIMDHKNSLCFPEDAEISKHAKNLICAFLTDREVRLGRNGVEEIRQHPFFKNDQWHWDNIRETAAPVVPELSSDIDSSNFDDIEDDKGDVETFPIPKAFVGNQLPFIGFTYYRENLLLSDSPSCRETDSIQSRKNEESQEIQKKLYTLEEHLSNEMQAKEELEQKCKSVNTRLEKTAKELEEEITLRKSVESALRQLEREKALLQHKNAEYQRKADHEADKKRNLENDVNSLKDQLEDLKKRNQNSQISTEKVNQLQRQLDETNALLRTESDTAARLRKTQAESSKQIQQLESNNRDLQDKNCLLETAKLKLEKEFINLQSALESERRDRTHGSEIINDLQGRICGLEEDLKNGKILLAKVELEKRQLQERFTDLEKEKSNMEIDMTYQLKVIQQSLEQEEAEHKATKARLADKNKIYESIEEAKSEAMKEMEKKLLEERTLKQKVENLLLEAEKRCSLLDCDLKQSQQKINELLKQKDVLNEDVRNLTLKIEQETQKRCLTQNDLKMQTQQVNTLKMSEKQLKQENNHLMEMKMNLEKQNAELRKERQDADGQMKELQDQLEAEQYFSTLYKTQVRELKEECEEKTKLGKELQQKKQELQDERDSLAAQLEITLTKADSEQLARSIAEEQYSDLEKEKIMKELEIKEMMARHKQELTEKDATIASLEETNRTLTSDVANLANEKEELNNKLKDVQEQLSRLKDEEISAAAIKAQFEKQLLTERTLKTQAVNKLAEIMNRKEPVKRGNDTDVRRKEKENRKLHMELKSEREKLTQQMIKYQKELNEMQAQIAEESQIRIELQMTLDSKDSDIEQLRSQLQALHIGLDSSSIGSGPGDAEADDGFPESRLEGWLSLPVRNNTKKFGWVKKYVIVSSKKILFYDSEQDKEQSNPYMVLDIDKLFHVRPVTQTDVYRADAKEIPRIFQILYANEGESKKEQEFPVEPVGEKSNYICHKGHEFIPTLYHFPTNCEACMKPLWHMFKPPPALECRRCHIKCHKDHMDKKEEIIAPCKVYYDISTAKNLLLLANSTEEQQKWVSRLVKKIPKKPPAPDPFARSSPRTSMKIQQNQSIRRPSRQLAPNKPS

[18] = target: T2, NUAK family SNF1-like kinase 2 (Homo sapiens) (UniProt Q9H093); settings: Compound concentration 1000.0 nM
T2 sequence (whole entry): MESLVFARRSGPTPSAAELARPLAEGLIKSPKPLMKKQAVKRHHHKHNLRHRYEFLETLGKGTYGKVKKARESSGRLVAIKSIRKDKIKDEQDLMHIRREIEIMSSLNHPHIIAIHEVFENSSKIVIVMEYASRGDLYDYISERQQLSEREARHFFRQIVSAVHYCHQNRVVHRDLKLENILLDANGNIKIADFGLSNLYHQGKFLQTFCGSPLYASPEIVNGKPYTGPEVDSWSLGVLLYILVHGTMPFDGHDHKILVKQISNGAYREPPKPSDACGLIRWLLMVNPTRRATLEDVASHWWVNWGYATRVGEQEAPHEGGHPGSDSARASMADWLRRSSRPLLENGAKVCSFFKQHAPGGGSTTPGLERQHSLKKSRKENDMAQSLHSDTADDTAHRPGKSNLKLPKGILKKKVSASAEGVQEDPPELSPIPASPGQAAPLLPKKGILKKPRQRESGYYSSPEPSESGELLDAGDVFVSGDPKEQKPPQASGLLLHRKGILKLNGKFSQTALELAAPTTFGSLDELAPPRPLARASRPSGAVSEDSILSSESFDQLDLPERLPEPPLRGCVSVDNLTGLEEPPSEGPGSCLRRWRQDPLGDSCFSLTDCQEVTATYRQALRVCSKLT

[19] = target: Tyrosine-protein kinase SYK (Homo sapiens) (UniProt P43405); settings: Compound concentration 1000.0 nM
[20] = target: 5-hydroxytryptamine receptor 3A (Homo sapiens) (UniProt P46098); settings: Compound concentration 10.0 uM
Sequence of 5-hydroxytryptamine receptor 3A (Homo sapiens) (P46098 whole entry): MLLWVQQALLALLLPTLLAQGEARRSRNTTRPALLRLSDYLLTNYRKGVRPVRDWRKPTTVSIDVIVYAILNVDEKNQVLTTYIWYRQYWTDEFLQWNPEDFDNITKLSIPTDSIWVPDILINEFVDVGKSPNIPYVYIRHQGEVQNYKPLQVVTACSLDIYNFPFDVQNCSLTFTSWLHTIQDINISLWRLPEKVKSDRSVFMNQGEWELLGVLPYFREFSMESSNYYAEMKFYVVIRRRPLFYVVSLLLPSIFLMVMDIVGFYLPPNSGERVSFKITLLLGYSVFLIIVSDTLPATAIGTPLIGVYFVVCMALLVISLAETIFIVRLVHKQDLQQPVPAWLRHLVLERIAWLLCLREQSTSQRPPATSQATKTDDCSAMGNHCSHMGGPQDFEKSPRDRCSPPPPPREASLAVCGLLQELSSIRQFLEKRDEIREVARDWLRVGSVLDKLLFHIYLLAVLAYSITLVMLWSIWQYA

Sequence of Casein kinase I isoform gamma-3 (Homo sapiens) (Q9Y6M4 whole entry, looked up, canonical isoform): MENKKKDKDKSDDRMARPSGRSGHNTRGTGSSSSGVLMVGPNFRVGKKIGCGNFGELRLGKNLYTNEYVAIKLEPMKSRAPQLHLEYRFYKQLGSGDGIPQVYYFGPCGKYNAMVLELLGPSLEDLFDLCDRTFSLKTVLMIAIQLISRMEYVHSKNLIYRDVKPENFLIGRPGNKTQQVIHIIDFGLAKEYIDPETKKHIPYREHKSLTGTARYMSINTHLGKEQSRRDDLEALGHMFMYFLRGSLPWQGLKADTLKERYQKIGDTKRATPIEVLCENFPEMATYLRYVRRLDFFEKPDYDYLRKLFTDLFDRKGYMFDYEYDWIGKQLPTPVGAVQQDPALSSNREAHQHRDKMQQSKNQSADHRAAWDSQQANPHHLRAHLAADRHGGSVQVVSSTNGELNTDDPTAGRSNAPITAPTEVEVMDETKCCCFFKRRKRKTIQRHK
Sequence of Cyclin-dependent kinase-like 2 (Homo sapiens) (Q92772 whole entry, canonical isoform): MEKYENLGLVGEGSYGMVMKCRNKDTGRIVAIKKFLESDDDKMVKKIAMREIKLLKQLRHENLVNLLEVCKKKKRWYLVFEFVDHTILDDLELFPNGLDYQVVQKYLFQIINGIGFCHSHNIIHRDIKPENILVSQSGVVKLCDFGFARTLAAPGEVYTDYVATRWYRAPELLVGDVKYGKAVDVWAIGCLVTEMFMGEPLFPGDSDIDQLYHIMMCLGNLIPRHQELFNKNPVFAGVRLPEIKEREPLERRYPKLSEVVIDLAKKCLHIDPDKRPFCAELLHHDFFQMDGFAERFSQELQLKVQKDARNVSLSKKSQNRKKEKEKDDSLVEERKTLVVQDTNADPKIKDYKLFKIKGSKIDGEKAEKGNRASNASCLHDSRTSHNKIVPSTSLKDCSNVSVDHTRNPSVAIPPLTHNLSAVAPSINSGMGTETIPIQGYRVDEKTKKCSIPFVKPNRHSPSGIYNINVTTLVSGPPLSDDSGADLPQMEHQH

`CCc1ccccc1C(=O)Nc1n[nH]c2c(C)c(F)c(C3C(C#N)=C(C)N(C)C(C)=C3C#N)cc12` [BAY-3827] gave a residual activity [1] of 95%, a residual activity [2] of 99% and a residual activity [3] of 94%. The residual activity [4] was 100%, the residual activity [5] was 62% and the residual activity [6] was 70%. For the same compound, the residual activity [7] was 100%, the residual activity [8] was 72% and the residual activity [9] was 51%. For the same compound, the residual activity [10] was 100%, the residual activity [11] was 97% and the residual activity [12] was 7.3%. The residual activity [13] was 16%, the residual activity [14] was 99% and the residual activity [15] was 64%. The residual activity [16] was 100%, the residual activity [17] was 100% and the residual activity [18] was 40%. For the same compound, the residual activity [19] was 100% and the inhibition [20] was 2.79%.
For `CC1=C(C#N)C(c2ccc3c(c2)c(NC(=O)c2ccccc2C)nn3C)C(C#N)=C(C)N1` [BAY-974], the residual activity [1] was 100%, the residual activity [2] was 94% and the residual activity [3] was 100%. It also gave a residual activity [4] of 100%, a residual activity [5] of 52% and a residual activity [6] of 84%. The residual activity [7] was 77%, the residual activity [8] was 84% and the residual activity [9] was 94%. For the same compound, the residual activity [10] was 87%, the residual activity [11] was 91% and the residual activity [12] was 24%. It also gave a residual activity [13] of 74%, a residual activity [14] of 91% and a residual activity [15] of 100%. The residual activity [16] was 100%, the residual activity [17] was 93% and the residual activity [18] was 81%. It also gave a residual activity [19] of 100% and an inhibition [20] of 9.93%.
